Assays:
Assay in all cases: Test C preemergence
Type in all cases: in vivo
[1] = test system: ryegrass, Italian (Italian ryegrass, Lolium multiflorum); conditions: for Plant response rating, Ryegrass, Italian: scale 0 to 100, 0 no effect, 100 complete control
In short: (§1)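 Seeds in loam-sand soil treated preemergence, or plants in peat-based medium sprayed postemergence at 2–18 cm (1- to 4-leaf stage), with compound in a non-phytotoxic solvent mixture containing surfactant. Greenhouse-held 13–15 d, then visually rated against controls on a 0–100 scale (0 = no effect, 100 = complete control); dash = not tested.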

[2] = test system: lambsquarters (Chenopodium album); conditions: for Plant response rating, Lambsquarters: scale 0 to 100, 0 no effect, 100 complete control
In short: as §1

[3] = test system: velvetleaf (Abutilon theophrasti); conditions: for Plant response rating, Velvetleaf: scale 0 to 100, 0 no effect, 100 complete control
In short: as §1

[4] = test system: wheat (winter wheat, Triticum aestivum); conditions: for Plant response rating, Wheat: scale 0 to 100, 0 no effect, 100 complete control
In short: as §1

[5] = test system: blackgrass (Alopecurus myosuroides); conditions: for Plant response rating, Blackgrass: scale 0 to 100, 0 no effect, 100 complete control
In short: as §1

[6] = test system: foxtail, giant (giant foxtail, Setaria faberii); conditions: for Plant response rating, Foxtail, Giant: scale 0 to 100, 0 no effect, 100 complete control
In short: as §1

[7] = test system: crabgrass, large (large crabgrass, Digitaria sanguinalis); conditions: for Plant response rating, Crabgrass, Large: scale 0 to 100, 0 no effect, 100 complete control
In short: as §1

[8] = test system: oilseed rape (Brassica napus); conditions: for Plant response rating, Oilseed Rape: scale 0 to 100, 0 no effect, 100 complete control
In short: as §1

[9] = test system: pigweed (Amaranthus retroflexus); conditions: for Plant response rating, Pigweed: scale 0 to 100, 0 no effect, 100 complete control
In short: as §1

[10] = test system: Galium (catchweed bedstraw, Galium aparine); conditions: for Plant response rating, Galium: scale 0 to 100, 0 no effect, 100 complete control
In short: as §1

[11] = test system: ragweed (common ragweed, Ambrosia elatior); conditions: for Plant response rating, Ragweed: scale 0 to 100, 0 no effect, 100 complete control
In short: as §1

[12] = test system: morningglory (Ipomoea coccinea); conditions: for Plant response rating, Morningglory: scale 0 to 100, 0 no effect, 100 complete control
In short: as §1

[13] = test system: barnyardgrass (Echinochloa crus-galli); conditions: for Plant response rating, Barnyardgrass: scale 0 to 100, 0 no effect, 100 complete control
In short: as §1

[14] = test system: waterhemp (common waterhemp, Amaranthus rudis); conditions: for Plant response rating, Waterhemp: scale 0 to 100, 0 no effect, 100 complete control
In short: as §1

[15] = test system: johnsongrass (Sorghum halepense); conditions: for Plant response rating, Johnsongrass: scale 0 to 100, 0 no effect, 100 complete control
In short: as §1

corn (Zea mays) = conditions: for Plant response rating, Corn: scale 0 to 100, 0 no effect, 100 complete control
In short: as §1

[16] = test system: nutsedge, yellow (yellow nutsedge, Cyperus esculentus); conditions: for Plant response rating, Nutsedge, Yellow: scale 0 to 100, 0 no effect, 100 complete control
In short: as §1

soybean (Glycine max) = test system: soybean (Glycine max)
In short: as §1

[17] = 31 g ai/ha, 0 is no effect, 100 is complete control

## CC(C)Oc1cccc(C2CN(C)C(=O)C2C(=O)Nc2cccc(F)c2F)c1 (stereo not shown) [Compound 651]
[1]; [17]
  Plant response rating (scale of 0 to 100), Ryegrass, Italian: 15
[1]; 62 g ai/ha
  Plant response rating, Ryegrass, Italian: 40
[1]; 125 g ai/ha
  Plant response rating, Ryegrass, Italian: 75
[1]; 250 g ai/ha
  Plant response rating, Ryegrass, Italian: 85
[2]; [17]
  Plant response rating (scale of 0 to 100), Lambsquarters: 35
[2]; 62 g ai/ha
  Plant response rating, Lambsquarters: 55
[2]; 125 g ai/ha
  Plant response rating, Lambsquarters: 85
[2]; 250 g ai/ha
  Plant response rating, Lambsquarters: 100
[3]; [17]
  Plant response rating (scale of 0 to 100), Velvetleaf: 25
[3]; 62 g ai/ha
  Plant response rating, Velvetleaf: 45
[3]; 125 g ai/ha
  Plant response rating, Velvetleaf: 70
[3]; 250 g ai/ha
  Plant response rating, Velvetleaf: 70
[4]; [17]
  Plant response rating (scale of 0 to 100), Wheat: 50
[4]; 62 g ai/ha
  Plant response rating, Wheat: 50
[4]; 125 g ai/ha
  Plant response rating, Wheat: 55
[4]; 250 g ai/ha
  Plant response rating, Wheat: 75
[5]; [17]
  Plant response rating (scale of 0 to 100), Blackgrass: 40
[5]; 62 g ai/ha
  Plant response rating, Blackgrass: 45
[5]; 125 g ai/ha
  Plant response rating, Blackgrass: 60
[5]; 250 g ai/ha
  Plant response rating, Blackgrass: 85
[6]; [17]
  Plant response rating (scale of 0 to 100), Foxtail, Giant: 95
[6]; 62 g ai/ha
  Plant response rating, Foxtail, Giant: 98
[6]; 125 g ai/ha
  Plant response rating, Foxtail, Giant: 98
[6]; 250 g ai/ha
  Plant response rating, Foxtail, Giant: 100
[7]; [17]
  Plant response rating (scale of 0 to 100), Crabgrass, Large: 98
[7]; 62 g ai/ha
  Plant response rating, Crabgrass, Large: 100
[7]; 125 g ai/ha
  Plant response rating, Crabgrass, Large: 100
[7]; 250 g ai/ha
  Plant response rating, Crabgrass, Large: 100
[8]; [17]
  Plant response rating (scale of 0 to 100), Oilseed Rape: 75
[8]; 62 g ai/ha
  Plant response rating, Oilseed Rape: 80
[8]; 125 g ai/ha
  Plant response rating, Oilseed Rape: 90
[8]; 250 g ai/ha
  Plant response rating, Oilseed Rape: 90
[9]; [17]
  Plant response rating (scale of 0 to 100), Pigweed: 35
[9]; 62 g ai/ha
  Plant response rating, Pigweed: 40
[9]; 125 g ai/ha
  Plant response rating, Pigweed: 50
[9]; 250 g ai/ha
  Plant response rating, Pigweed: 85
[10]; [17]
  Plant response rating (scale of 0 to 100), Galium: 60
[10]; 62 g ai/ha
  Plant response rating, Galium: 50
[10]; 125 g ai/ha
  Plant response rating, Galium: 90
[10]; 250 g ai/ha
  Plant response rating, Galium: 90
[11]; [17]
  Plant response rating (scale of 0 to 100), Ragweed: 20
[11]; 62 g ai/ha
  Plant response rating, Ragweed: 25
[11]; 125 g ai/ha
  Plant response rating, Ragweed: 60
[11]; 250 g ai/ha
  Plant response rating, Ragweed: 85
[12]; [17]
  Plant response rating (scale of 0 to 100), Morningglory: 0
[12]; 62 g ai/ha
  Plant response rating, Morningglory: 0
[12]; 125 g ai/ha
  Plant response rating, Morningglory: 0
[12]; 250 g ai/ha
  Plant response rating, Morningglory: 0
[13]; [17]
  Plant response rating (scale of 0 to 100), Barnyardgrass: 95
[13]; 62 g ai/ha
  Plant response rating, Barnyardgrass: 98
[13]; 125 g ai/ha
  Plant response rating, Barnyardgrass: 100
[13]; 250 g ai/ha
  Plant response rating, Barnyardgrass: 100
[14]; [17]
  Plant response rating (scale of 0 to 100), Waterhemp: 20
[14]; 62 g ai/ha
  Plant response rating, Waterhemp: 40
[14]; 125 g ai/ha
  Plant response rating, Waterhemp: 50
[14]; 250 g ai/ha
  Plant response rating, Waterhemp: 85
[15]; [17]
  Plant response rating (scale of 0 to 100), Johnsongrass: 20
[15]; 62 g ai/ha
  Plant response rating, Johnsongrass: 50
[15]; 125 g ai/ha
  Plant response rating, Johnsongrass: 70
[15]; 250 g ai/ha
  Plant response rating, Johnsongrass: 80
Corn (Zea mays); [17]
  Plant response rating (scale of 0 to 100), Corn: 25
Corn (Zea mays); 62 g ai/ha
  Plant response rating, Corn: 55
Corn (Zea mays); 125 g ai/ha
  Plant response rating, Corn: 70
Corn (Zea mays); 250 g ai/ha
  Plant response rating, Corn: 70
[16]; [17]
  Plant response rating (scale of 0 to 100), Nutsedge, Yellow: 0
[16]; 62 g ai/ha
  Plant response rating, Nutsedge, Yellow: 0
[16]; 125 g ai/ha
  Plant response rating, Nutsedge, Yellow: 0
[16]; 250 g ai/ha
  Plant response rating, Nutsedge, Yellow: 0
Soybean (Glycine max); [17]
  Plant response rating (scale of 0 to 100), Soybean: 5
Soybean (Glycine max); 125 g ai/ha, scale 0 to 100, 0 no effect, 100 complete control
  Plant response rating, Soybean: 0

Reference: patent US12077503B2, “Substituted cyclic amides and their use as herbicides” (FMC CORPORATION, priority 2015, dated 2024)
